Data reported in patent US8853151B2, “Pro-drug complexes and related methods of use” (The Regents of the University of Michigan, priority 2009, dated 2014).
Converted amounts (≈) assume the structure as drawn. Like-named read-outs stand apart in the source and are kept apart here.

Key:
[1] = system: breast cancer cell line SKBR3; test: Effect on cell growth with or without recombinant human DT-Diaphorase (DTD) in the growth medium, SKBR3 cells; assay type: cell-based
From the text: (§1) The redox-coupled release of free SN38 from the SN-38 pro-drug complex
(§2) [drawing 24] using the enzyme DT-Diaphorase (DTD) was investigated. DTD is a cytosolic oxidoreductase which catalyzes the two-electron reduction of quinones using NADH or NADPH as electron donors (see, e.g., Phillips et al, Biochemical Pharmacology 68: 2107-2116 (2004); herein incorporated by reference in its entirety). As the DTD-induced reduction of quinones is known to take place even under normoxic conditions, the enzyme is used as a positive control for testing the release of drugs from quinone-linked drugs. Synthesized SN-38 pro-drug complex was incubated with recombinant human DTD (Sigma) added into the cell growth medium in the presence of different concentration of the SN-38 pro-drug complex. The effect of the drug on cell growth was determined in two different human cell lines, the cervical carcinoma cell line KB, and the breast cancer cell line SKBR3.

[2] = system: cervical carcinoma cell line KB; test: Effect on cell growth with or without recombinant human DT-Diaphorase (DTD) in the growth medium, KB cells; assay type: cell-based
From the text: as §1, §2

[3] = Solubility of SN-38 pro-drug complex in comparison with SN-38; assay type: physicochemical
From the text: The solubility of SN-38 pro-drug complex
[drawing 23] in comparison with SN-38 was investigated.

[4] = absence of DTD, up to 300 nM prodrug

SMILES | cytotoxicity [1, 4] | cytotoxicity on redox-mediated activation (FIG. 9) ([1]; redox-mediated activation) | cytotoxicity [2, 4] | cytotoxicity on redox mediated activation (FIG. 8) ([2]; redox mediated activation) | solubility ([3]; in water, read-out: solubility) | solubility compared with SN38 ([3]; ratio pro-drug complex / SN38) | solubility ([3]; water)
CCc1c2c(nc3ccc(OC(=O)N(C)CCN(C)C(=O)OCc4c5c(n(CC(=O)NCCOCCOCCOCCn6cc(CCC(=O)CCCC(=O)NCCCCC7NC(=O)[C@@H](Cc8ccc(O)cc8)NC(=O)[C@H](CC(=O)O)NC(=O)CNC(=O)[C@H](CCCNC(=N)N)NC7=O)nn6)c4C)C(=O)C=C(OC)C5=O)cc13)-c1cc3c(c(=O)n1C2)COC(=O)[C@]3(O)CC (stereo partly shown) [SN-38 pro-drug complex] | essentially non-cytotoxic | leads to SKBR3 cell cytotoxicity | essentially non-cytotoxic | leads to KB cell cytotoxicity | 100 µg/mL | >= 50 times | 
CCc1c2c(nc3ccc(O)cc13)-c1cc3c(c(=O)n1C2)COC(=O)[C@]3(O)CC [SN38, 7-Ethyl-10-hydroxy-camptothecin, reference compound] |  |  |  |  |  |  | ~2 µg/mL (≈ 5.1 µM)
